Experimental data published in the supplement of paper PMC10307832.

Assays:
Experiment in all cases: relative viability (nuclei count vs DMSO), 5 days (fraction); higher = more cells survive
[1] = compound: C1=CC=C2C(=C1)N=C(S2)C(C#N)C3=NC(=NC=C3)NCCC4=CN=CC=C4 + CCNC(=O)c1noc(-c2cc(C(C)C)c(O)cc2O)c1-c1ccc(CN2CCOCC2)cc1 [Luminespib] (partner 0.01 µM)
Method in brief: (§1)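 Relative viability is defined as nuclei in treated wells over nuclei in vehicle wells. Duplicate plates were run and medians reported. Lung cancer cell lines in 1536-well plates were dosed by pin tool one day after seeding, with one drug or with a fixed anchor-drug dose plus five library-drug doses (not always all listed) in √10 steps, and nuclei were counted after 5 days.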

[2] = compound: C1=CC=C2C(=C1)N=C(S2)C(C#N)C3=NC(=NC=C3)NCCC4=CN=CC=C4 + COc1cc2c(Oc3ccc(NC(=O)C4(C(=O)Nc5ccc(F)cc5)CC4)cc3F)ccnc2cc1OCCCN1CCOCC1 [Foretinib] (partner 0.25 µM)
Method in brief: as §1

Vandetanib + Lapatinib = compound: COc1cc2/c(=N/c3ccc(Br)cc3F)nc[nH]c2cc1OCC1CCN(C)CC1 [Vandetanib] + CS(=O)(=O)CCNCc1ccc(-c2ccc3ncnc(Nc4ccc(OCc5cccc(F)c5)c(Cl)c4)c3c2)o1 [Lapatinib] (partner 2 µM)
Method in brief: as §1

Vandetanib + Tozasertib = compound: COc1cc2/c(=N/c3ccc(Br)cc3F)nc[nH]c2cc1OCC1CCN(C)CC1 [Vandetanib] + Cc1cc(Nc2cc(N3CCN(C)CC3)nc(Sc3ccc(NC(=O)C4CC4)cc3)n2)n[nH]1 [Tozasertib] (partner 0.1 µM)
Method in brief: as §1

Cell Line	relative viability ([1]; first compound 0.005 µM)	relative viability ([1]; first compound 0.01581 µM)	relative viability ([1]; first compound 0.05 µM)	relative viability ([1]; first compound 0.1581 µM)	relative viability ([1]; first compound 0.5 µM)	relative viability ([2]; first compound 0.005 µM)	relative viability ([2]; first compound 0.01581 µM)	relative viability ([2]; first compound 0.05 µM)	relative viability ([2]; first compound 0.1581 µM)	relative viability ([2]; first compound 0.5 µM)	relative viability (Vandetanib + Lapatinib; first compound 0.02 µM)	relative viability (Vandetanib + Lapatinib; first compound 0.06325 µM)	relative viability (Vandetanib + Lapatinib; first compound 0.2 µM)	relative viability (Vandetanib + Lapatinib; first compound 0.6325 µM)	relative viability (Vandetanib + Lapatinib; first compound 2 µM)	relative viability (Vandetanib + Tozasertib; first compound 0.02 µM)	relative viability (Vandetanib + Tozasertib; first compound 0.06325 µM)	relative viability (Vandetanib + Tozasertib; first compound 0.2 µM)	relative viability (Vandetanib + Tozasertib; first compound 0.6325 µM)	relative viability (Vandetanib + Tozasertib; first compound 2 µM)
NCI-H1755	0.458	0.406	0.262	0.576	0.61	0.915	0.991	0.945	0.936	0.939	1.06	0.978	0.983	1.02	1.01	0.581	0.568	0.648	0.536	0.567
NCI-H838	0.327	0.368	0.252	0.367	0.273	0.981	1.04	0.99	0.928	0.926	0.937	0.953	0.958	0.958	0.99	0.264	0.273	0.193	0.253	0.229
ABC-1	–	0.736	0.374	0.855	0.737	1.2	1.01	0.935	1.12	1	1.48	1.29	1.12	1.37	0.961	0.177	0.173	0.189	0.183	0.117
NCI-H2228	0.146	0.117	0.153	0.163	0.142	0.971	0.84	0.993	1.04	0.76	1.32	0.903	–	1.32	1.23	0.263	0.304	0.124	0.219	0.214
NCI-H1793	0.16	0.141	0.182	0.158	0.22	0.714	0.71	0.58	0.775	0.679	0.682	0.794	0.504	0.816	0.723	0.335	0.351	0.195	0.341	0.242
NCI-H661	0.902	0.917	0.918	0.926	0.933	1.07	1.04	0.943	1.03	1.11	0.547	0.532	0.555	0.607	0.365	0.345	0.345	0.315	0.364	0.368
EKVX	0.953	0.837	0.868	0.673	0.842	0.8	0.833	0.83	0.79	0.777	0.2	0.184	0.183	0.2	0.215	0.431	0.424	0.398	0.409	0.27
NCI-H1650	0.171	0.191	0.176	0.204	0.2	1.02	1.38	0.919	1.55	0.787	0.704	0.734	–	0.988	0.765	0.354	0.24	0.146	0.378	0.374
HCC-827	0.464	0.833	0.579	1.13	0.785	1.06	1.06	1.06	1.16	1.13	0.195	0.18	0.183	0.181	0.185	0.442	0.419	0.415	0.243	0.135
NCI-H2170	0.702	0.803	0.621	1.01	0.894	0.731	1.03	0.961	1.04	0.861	0.264	0.253	0.225	0.271	0.269	0.75	0.733	0.796	0.685	0.764
NCI-H1395	0.878	0.641	0.822	0.679	0.819	0.868	0.912	1.05	0.996	0.967	0.963	0.875	1.03	0.936	0.864	0.752	0.753	0.845	0.837	0.723
NCI-H2009	1.1	1.09	1.05	1.07	1.05	1.17	1.2	1.18	1.32	1.23	0.848	0.887	1.04	0.981	1.06	0.733	0.704	0.419	0.735	0.786
NCI-H1437	1.06	1.25	1.12	1.18	1.1	1.26	1.3	1.27	1.32	1.23	0.758	0.767	0.764	0.76	0.806	0.408	0.402	0.134	0.402	0.389
